Laboratory results published in patent US20030130225A1, “Novel methods of treating local fungal and bacterial infections” (priority 2001, published 2003).
Where two headings read alike, the source gives them in different places.

How the values were obtained:
[1] = human, in vivo, po; cited from earlier work
[2] = tested on: Candida vaginitis; conditions: single dose oral; cited from earlier work
[3] = tested on: Candida albicans; conditions: for rabbits with no Candida albicans in culture of the vaginal mucosa: 72 hours post dosage
Description: Thirty-five female albino rabbits vaginally infected with Candida albicans were randomly assigned to seven dosage groups, 5 rabbits per group.

**Q.** For `OC(Cn1cncn1)(Cn1cncn1)c1ccc(F)cc1F` [Fluconazole, fluconazole], which “time to reach peak plasma concentration” value [1] is on record?
**A.** The value was “about 3 hours”.

**Q.** And the “time to reach vaginal tissue and vaginal fluid” value [1]?
**A.** The value was 2 to 3 days.

**Q.** What about the “average time for the onset of symptom relief” value [2] of the same molecule?
**A.** Its value is “about 2.4 days”.

**Q.** And the “rabbits with no Candida albicans in culture of the vaginal mucosa” value (“rabbits with no Candida albicans” below) ([3]; 0.5 mg/kg oral fluconazole once)?
**A.** The value was 40%.

**Q.** What about the “rabbits with no Candida albicans” value ([3]; 1.0 mg/kg oral fluconazole once) of the same molecule?
**A.** Its value is 100%.

**Q.** What about the “rabbits with no Candida albicans” value ([3]; 2.0 mg/kg oral fluconazole once) of the same molecule?
**A.** Its value is 60%.

**Q.** What about the “irritation to the vaginal epithelium” value ([3]; rabbit, in vivo) of the same molecule?
**A.** The value was “mild irritation”.
